Reference: US20200339691A1, “PROTEINACEOUS MOLECULES AND USES THEREFOR” (priority 2018, published 2020)
Where a SMILES comes first, the peptide text is derived from it. The star is where a group is joined. Myristoyl = CCCCCCCCCCCCCC(=O)*

Legend:
MDA-MB-231 cells = type: cell-based, human; details: 50 μM peptide, 48 hours, n = 1
Excerpt: (§1) Non-adherent cells were removed during the washing steps.

[1] = tested on: CD44^hiCD24^lo CSCs in MDA-MB-231 cells; assay: FACS analysis of CD44^hiCD24^lo cancer stem cells in MDA-MB-231 cells treated with P1 analogues; type: cell-based, human; details: 50 μM peptide, 48 hours; for CD44^hiCD24^lo CSCs (%) / COI, Live Single CD44^hiCD24^lo CSCs (Cell Count): n = 1; for Average Inhibition of CSCs (%) / CD44^hiCD24^lo CSCs (%) Repeat 1 / CD44^hiCD24^lo CSCs (%) Repeat 2 / CD44^hiCD24^lo CSCs (%) Repeat 3: n = 3
Method: Analogues of P1 (Table 6) were designed and synthesized in accordance with the procedure of Example 5. The ability of these analogues to inhibit cancer stem cells was determined using FACS analysis on MDA-MB-231 cells, which constitutively contain approximately 90% CD44^hiCD24^lo cancer stem cells, treated with the peptides.
as §1
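For COI, Live Single Cells (Cell Count) in this document: live means Hoechst-negative events among single cells.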

SMILES	COI (Cell Count) (MDA-MB-231 cells)	COI, Live Single Cells (Cell Count) (MDA-MB-231 cells)	COI, Single (Cell Count) (MDA-MB-231 cells)	Total Cell Count (MDA-MB-231 cells)	Inhibition of CSCs (%) Repeat 1 [1] [%]	Inhibition of CSCs (%) Repeat 2 [1] [%]	Inhibition of CSCs (%) Repeat 3 [1] [%]	CD44^hiCD24^lo CSCs (%) [1] [%]	COI, Live Single CD44^hiCD24^lo CSCs (Cell Count) [1]	Average Inhibition of CSCs (%) [1] [%]	CD44^hiCD24^lo CSCs (%) Repeat 1 [1] [%]	CD44^hiCD24^lo CSCs (%) Repeat 2 [1] [%]	CD44^hiCD24^lo CSCs (%) Repeat 3 [1] [%]
CCCCCCCCCCCCCC(=O)N[C@H](C(=O)N[C@@H](Cc1ccccc1)C(=O)N[C@H](C(=O)N[C@@H](Cc1ccccc1)C(=O)N[C@@H](CCCNC(=N)N)C(=O)N[C@@H](CC(C)C)C(=O)N[C@@H](CCCNC(=N)N)C(=O)N[C@@H](CCCCN)C(=O)NCC(=O)N[C@@H](C)C(=O)N[C@@H](CCSC)C(=O)N[C@@H](CCSC)C(=O)N[C@@H](CC(=O)O)C(=O)N[C@H](C(=O)N[C@@H](CCCCN)C(=O)N[C@@H](CCCCN)C(N)=O)C(C)C)[C@@H](C)CC)[C@@H](C)O [Peptide 2815318, Myristoyl-TFIFRLRKGAMMDVKK-NH2] (Myristoyl-TFIFRLRKGAMMDVKK-NH2)	183	132	142	3480	54.80	54.73	55.59	53.03	70	55.04	40.51	40.61	39.86
CCCCCCCCCCCCCC(=O)N[C@H](C(=O)N[C@@H](Cc1ccccc1)C(=O)N[C@H](C(=O)N[C@@H](Cc1ccccc1)C(=O)N[C@@H](C)C(=O)N[C@@H](CC(C)C)C(=O)N[C@@H](CCCNC(=N)N)C(=O)N[C@@H](CCCCN)C(=O)NCC(=O)N[C@@H](CCCNC(=N)N)C(=O)N[C@@H](CCSC)C(=O)N[C@@H](CCSC)C(=O)N[C@@H](CC(=O)O)C(=O)N[C@H](C(=O)N[C@@H](CCCCN)C(=O)N[C@@H](CCCCN)C(N)=O)C(C)C)[C@@H](C)CC)[C@@H](C)O [Peptide 2815306, Myristoyl-TFIFALRKGRMMDVKK-NH2] (Myristoyl-TFIFALRKGRMMDVKK-NH2)	323	238	280	9352	67.33	69.17	70.79	27.73	66	69.09	29.28	27.66	26.21
CCCCCCCCCCCCCC(=O)N[C@@H](CC(C)C)C(=O)N[C@@H](CCC(=O)O)C(=O)N[C@@H](Cc1ccccc1)C(=O)N[C@H](C(=O)N[C@@H](Cc1ccccc1)C(=O)N[C@@H](CCCNC(=N)N)C(=O)N[C@@H](CC(C)C)C(=O)N[C@@H](CCCNC(=N)N)C(=O)N[C@@H](CCCCN)C(=O)NCC(=O)N[C@@H](CCCNC(=N)N)C(=O)N[C@@H](CCSC)C(=O)N[C@@H](CCSC)C(=O)N[C@@H](CC(=O)O)C(=O)N[C@H](C(=O)N[C@@H](CCCCN)C(=O)N[C@@H](CCCCN)C(N)=O)C(C)C)[C@@H](C)CC [Peptide 2853804, Myristoyl-LEFIFRLRKGRMMDVKK-NH2] (Myristoyl-LEFIFRLRKGRMMDVKK-NH2)	360	138	203	1384	85.86	80.73	86.58	13.77	19	84.39	12.67	17.29	12.05
CCCCCCCCCCCCCC(=O)N[C@@H](CC(C)C)C(=O)N[C@H](C(=O)N[C@@H](Cc1ccccc1)C(=O)N[C@H](C(=O)N[C@@H](Cc1ccccc1)C(=O)N[C@@H](CCCNC(=N)N)C(=O)N[C@@H](CC(C)C)C(=O)N[C@@H](CCCNC(=N)N)C(=O)N[C@@H](CCCCN)C(=O)N[C@@H](CC(=O)O)C(=O)N[C@@H](CCCNC(=N)N)C(=O)N[C@@H](CCSC)C(=O)N[C@@H](CCSC)C(=O)N[C@@H](CC(=O)O)C(=O)N[C@H](C(=O)N[C@@H](CCCCN)C(=O)N[C@@H](CCCCN)C(N)=O)C(C)C)[C@@H](C)CC)[C@@H](C)O [Peptide 2853827, Myristoyl-LTFIFRLRKDRMMDVKK-NH2] (Myristoyl-LTFIFRLRKDRMMDVKK-NH2)	170	61	110	4681	95.44	91.08	89.47	1.64	1	92.00	4.09	8.00	9.45
CCCCCCCCCCCCCC(=O)N[C@@H](CC(C)C)C(=O)N[C@H](C(=O)N[C@@H](Cc1ccccc1)C(=O)N[C@@H](CCC(=O)O)C(=O)N[C@@H](Cc1ccccc1)C(=O)N[C@@H](CCCNC(=N)N)C(=O)N[C@@H](CC(C)C)C(=O)N[C@@H](CCCNC(=N)N)C(=O)N[C@@H](CCCCN)C(=O)NCC(=O)N[C@@H](CCCNC(=N)N)C(=O)N[C@@H](CCSC)C(=O)N[C@@H](CCSC)C(=O)N[C@@H](CC(=O)O)C(=O)N[C@H](C(=O)N[C@@H](CCCCN)C(=O)N[C@@H](CCCCN)C(N)=O)C(C)C)[C@@H](C)O [Peptide 2853810, Myristoyl-LTFEFRLRKGRMMDVKK-NH2] (Myristoyl-LTFEFRLRKGRMMDVKK-NH2)	778	545	613	3451	87.14	87.82	83.75	13.58	74	86.23	11.53	10.93	14.58
CCCCCCCCCCCCCC(=O)N[C@@H](CC(C)C)C(=O)N[C@H](C(=O)N[C@@H](Cc1ccccc1)C(=O)N[C@H](C(=O)N[C@@H](Cc1ccccc1)C(=O)N[C@@H](CCCNC(=N)N)C(=O)N[C@@H](CC(C)C)C(=O)N[C@@H](CCCNC(=N)N)C(=O)N[C@@H](CCCCN)C(=O)N[C@H](C(=O)N[C@@H](CCCNC(=N)N)C(=O)N[C@@H](CCSC)C(=O)N[C@@H](CCSC)C(=O)N[C@@H](CC(=O)O)C(=O)N[C@H](C(=O)N[C@@H](CCCCN)C(=O)N[C@@H](CCCCN)C(N)=O)C(C)C)C(C)C)[C@@H](C)CC)[C@@H](C)O [Peptide 2853829, Myristoyl-LTFIFRLRKVRMMDVKK-NH2] (Myristoyl-LTFIFRLRKVRMMDVKK-NH2)	167	68	131	10000	89.50	91.73	94.67	5.88	4	91.97	9.41	7.42	4.79
CCCCCCCCCCCCCC(=O)N[C@@H](CC(C)C)C(=O)N[C@H](C(=O)N[C@@H](Cc1ccccc1)C(=O)N[C@H](C(=O)N[C@@H](Cc1ccccc1)C(=O)N[C@@H](CCCNC(=N)N)C(=O)N[C@@H](CC(C)C)C(=O)N[C@@H](CCCNC(=N)N)C(=O)N[C@@H](CCCCN)C(=O)NCC(=O)N[C@@H](CCCNC(=N)N)C(=O)N[C@@H](CCSC)C(=O)N[C@@H](CCSC)C(=O)N[C@@H](CC(=O)O)C(=O)N[C@H](C(=O)N[C@@H](CCCCN)C(=O)N[C@@H](CCC(=O)O)C(N)=O)C(C)C)[C@@H](C)CC)[C@@H](C)O [Peptide 2853845, Myristoyl-LTFIFRLRKGRMMDVKE-NH2] (Myristoyl-LTFIFRLRKGRMMDVKE-NH2)	4600	4012	4111	5598	15.69	19.72	17.64	65.10	2612	17.69	75.56	72.02	73.91
CCCCCCCCCCCCCC(=O)N[C@H](C(=O)N[C@@H](Cc1ccccc1)C(=O)N[C@H](C(=O)N[C@@H](Cc1ccccc1)C(=O)N[C@@H](CCCNC(=N)N)C(=O)N[C@@H](C)C(=O)N[C@@H](CCCNC(=N)N)C(=O)N[C@@H](CCCCN)C(=O)NCC(=O)N[C@@H](CCCNC(=N)N)C(=O)N[C@@H](CCSC)C(=O)N[C@@H](CCSC)C(=O)N[C@@H](CC(=O)O)C(=O)N[C@H](C(=O)N[C@@H](CCCCN)C(=O)N[C@@H](CCCCN)C(N)=O)C(C)C)[C@@H](C)CC)[C@@H](C)O [Peptide 2815307, Myristoyl-TFIFRARKGRMMDVKK-NH2] (Myristoyl-TFIFRARKGRMMDVKK-NH2)	182	137	164	10681	24.79	25.54	36.94	62.77	86	29.09	67.40	66.80	56.59
